From US20250340592A1, “MAMMALIAN MILK-DERIVED PEPTIDES WITH ANTIMICROBIAL ACTIVITY” (MATRUBIALS INC., priority 2022, published 2025)
Where no end group is shown, it is not given here.

Columns and labels:
G. vaginalis = experiment: direct kill assay (time-kill, FIG. 8); assay type: cell-based, Gardnerella vaginalis; conditions: 0.375, 0.75, 1.5 mg/ml peptide, spotted 30 min post incubation
Experimental: (§1) For these peptides, 0.375 mg/ml concentration is sufficient to cause loss of viability of G. vaginalis and L. iners as compared to the absence of peptides. In FIG. 8A, M1-M8 peptides (SEQ ID NOS: 1, 6, 11, 16, 21, 26, 31, and 36) were tested using direct kill assays. Equal inoculums of G. vaginalis, L. iners and L. crispatus were incubated with either water (0.00), or 0.375 mg/ml, 0.75 mg/ml and 1.5 mg/ml. of peptides. Aliquots were spotted 30 minutes (min) post incubation on human blood tween (HBT) bilayer media, Tryptic soy agar (+5% sheep blood) or MRS (de Man, Rogosa, and Sharpe) agar plates respectively. For these peptides, 0.375 mg/ml concentration is sufficient to cause loss of viability of G. vaginalis and L. iners as compared to the absence of peptides.

L. iners = experiment: direct kill assay (time-kill, FIG. 8); assay type: cell-based, Lactobacillus iners; conditions: 0.375, 0.75, 1.5 mg/ml peptide, spotted 30 min post incubation
Experimental: as §1

L. crispatus = experiment: direct kill assay (time-kill, FIG. 8); assay type: cell-based, Lactobacillus crispatus; conditions: 0.375, 0.75, 1.5 mg/ml peptide, spotted 30 min post incubation
Experimental: as §1

P. aeruginosa [1] = experiment: colony-forming assay, CFU/ml over time (FIG. 10A); assay type: cell-based, Pseudomonas aeruginosa; conditions: peptide 0.5% (5 mg/ml); for sensitivity of P. aeruginosa to peptide (CFU/ml): 0.8% NaCl, T=0 up to 60 minutes; for sensitivity of P. aeruginosa to peptide as compared to Indolicidin: after 20 minutes
From the text: (§2) FIGS. 10A, 10B, and 10C are graphs depicting bacterial viability in colony forming units (CFU) per milliliter (ml) over time (minutes) in the presence of select polypeptides: SEQ ID NO: 26 (M6); SEQ ID NO: 31 (M7); SEQ ID NO: 177 (M14); SEQ ID NO: 213 (M16); and SEQ ID NO: 291 (M22) in comparison to Indolicidin (IND) in the presence of P. aeruginosa (FIG. 10A), S. aureus MRSA (FIG. 10B), and S. epidermidis (FIG. 10C), respectively.
(§3) In FIGS. 10A, 10B, and 10C, quantitative colony-forming units/ml were assayed using the indicated peptides at a final concentration of 0.5% (5 mg/ml). For this colony-forming assay, peptides were incubated with indicated bacterial strains in 0.8% NaCl, and aliquots were removed starting time T=0, up to 60 minutes, followed by serial dilution and plating on Tryptic soy agar plates for overnight incubation, and enumeration of CFU/ml.

S. aureus MRSA [2] = experiment: colony-forming assay, CFU/ml over time (FIG. 10B); assay type: cell-based, Staphylococcus aureus; conditions: peptide 0.5% (5 mg/ml); for sensitivity of S. aureus to peptide (CFU/ml): 0.8% NaCl, T=0 up to 60 minutes; for sensitivity of S. aureus MRSA to peptide as compared to Indolicidin: after 20 minutes
From the text: as §2, §3

S. epidermidis = experiment: colony-forming assay, CFU/ml over time (FIG. 10C); assay type: cell-based, Staphylococcus epidermidis; conditions: peptide 0.5% (5 mg/ml), 0.8% NaCl, T=0 up to 60 minutes
From the text: as §2, §3

A. baumannii [3] = experiment: direct kill assay of formulated peptide (FIG. 12D); assay type: cell-based, Acinetobacter baumannii; conditions: 0.5% peptide in 20% propylene glycol and 2% hydroxypropyl cellulose, 0-60 min
Experimental: (§4) FIGS. 12A, 12B, 12C, and 12D depict the retention of antimicrobial activity of the indicated peptides M6 (SEQ ID NO: 26), M14 (SEQ ID NO:177), M16 (SEQ ID NO: 213) and M22 (SEQ ID NO: 291), with each peptide formulated in a composition with 20% propylene glycol and 2% hydroxypropyl cellulose (F is the formulation without a peptide), in the presence of G. vaginalis (FIG. 12A), L. iners (FIG. 12B), L. crispatus (FIG. 12C), or A. baumannii (FIG. 12D), from 0 minutes (min) to 60 minutes, as indicated, where the amount of growth is indicated as: 4 is full growth; 3 is too many colonies to count; 2 is countable colonies; and 1 is no growth.
In FIGS. 12A, 12B, 12C, and 12D, the impact of the formulation comprising 20% propylene glycol and 2% hydroxypropyl cellulose and 0.5% by weight of peptide M6 (SEQ ID NO: 26), M7 (SEQ ID NO: 31), M14 (SEQ ID NO: 177), M16 (SEQ ID NO: 213), or M22 (SEQ ID NO: 291) was tested in a direct kill assay as described herein.

S. aureus MRSA [4] = experiment: direct kill assay of formulated peptide (FIG. 13); assay type: cell-based, Staphylococcus aureus; conditions: 0.5% by weight peptide in 20% propylene glycol and 2% hydroxypropyl cellulose
Experimental: as §4, with “FIG. 13 depicts” for “FIGS. 12A, 12B, 12C, and 12D depict”, “S. aureus MRSA,” for “G. vaginalis (FIG. 12A), L. iners (FIG. 12B), L. crispatus (FIG. 12C), or A. baumannii (FIG. 12D),”
In FIG. 13, the impact of the formulation comprising 20% propylene glycol and 2% hydroxypropyl cellulose and 0.5% by weight of peptide M6 (SEQ ID NO: 26), M7 (SEQ ID NO: 31), M14 (SEQ ID NO: 177), M16 (SEQ ID NO: 213), or M22 (SEQ ID NO: 291) was tested using a direct kill assay.

[5] = system: MRSN panel P. aeruginosa strain NR-51553; assay type: cell-based, Pseudomonas aeruginosa; conditions: 0.5% CMC and 0.01×MH broth
From the text: FIGS. 15A-15B show the growth of P. aeruginosa strain NR-51553 of FIG. 14A in a modified CLSI-based broth dilution assay, in the presence of peptide M16 (SEQ ID NO: 213) in 0.01×MH broth (FIG. 15A) and in the presence of peptide M16 in 0.01×MH broth and 0.5% carboxymethyl cellulose (CMC) (FIG. 15B), where the amount of growth is indicated as: 4 is full growth; 3 is too many colonies to count; 2 is countable colonies; and 1 is no growth.
FIG. 14A indicates sensitive(S) or resistant (R) relative to the listed antibiotic for eight of the more peptide-resistant […] strains of 100 MRSN panel strains (NR-51553, NR-51556, NR-51570, NR51597, NR-51520, NR-51546, NR-51574, and NR-51588). […] CLSI-based method described in CLSI document M07-A10, Vol. 35, No. 2, 2015 (ISBN 1-56238-988-2).

A. baumannii [6] = experiment: growth of A. baumannii with peptide (FIG. 17); assay type: cell-based, Acinetobacter baumannii; conditions: 250 μg/ml peptide, 0.01×MH broth
P. aeruginosa [7] = experiment: time-kill assays (FIG. 9); assay type: cell-based, Pseudomonas aeruginosa; conditions: as compared to M1-M5
Experimental: FIG. 9. depicts the antibiotic activity (in concentration of polypeptide at 0.375 mg/ml (****), 0.75 mg/ml (***), 1.5 mg/ml (**), or 3 mg/ml (*), as indicated) for each of polypeptides (SEQ ID NO: 1 (M1); SEQ ID NO: 6 (M2); SEQ ID NO: 11 (M3); SEQ ID NO: 16 (M4); SEQ ID NO: 21 (M5); SEQ ID NO: 26 (M6); SEQ ID NO: 31 (M7); SEQ ID NO: 36 (M8); SEQ ID NO: 41 (M9); SEQ ID NO: 76 (M10); SEQ ID NO: 106 (M11); SEQ ID NO: 141 (M12); SEQ ID NO: 142 (M13); SEQ ID NO: 177 (M14); SEQ ID NO:178 (M15); SEQ ID NO: 213 (M16); SEQ ID NO: 219 (M18), SEQ ID NO: 220 (M19); SEQ ID NO: 256 (M21); and SEQ ID NO: 291 (M22)) against P. aeruginosa and S. aureus MRSA, as indicated.
In FIG. 9, the bacterial pathogens P. aeruginosa and S. aureus—associated with skin, burn and wound infections were tested.

[8] = system: EpiVaginal tissue model (Mattek); assay type: cell-based
Experimental: Table 2 below show the results of peptides M6 (SEQ ID NO: 26) and M14 (SEQ ID NO: 177) were assayed for their impact on vaginal irritation using the Epi Vaginal model to determine the exposure time to decrease the tissue viability to 50% (ET50) in EpiVaginal™ tissue model (Mattek). In brief, after exposure to the M6 and M14 peptides at 20 mg/ml final concentration for various times, toxicity was determined by measuring the relative conversion of MTT (3-(4,5-dimethylthiazol-2-yl)-2,5-dephenyltetrazolium bromide) in the vaginal tissue samples treated with peptide compared to tissues treated with a solvent negative control. Positive control was Triton-X-100 at 1% final concentration.

GKRKPVTRAR (Synthetic: M2)
polypeptides target G. vaginalis (time-kill images) (G. vaginalis): target
polypeptides target L. iners (time-kill images) (L. iners): target
polypeptides target L. crispatus (time-kill images) (L. crispatus): not L. crispatus

HKYAVRVVKK [M16, HKYAVRVVKK]
sensitivity of P. aeruginosa to peptide (CFU/ml) (P. aeruginosa [1]): particularly sensitive
sensitivity of P. aeruginosa to peptide as compared to Indolicidin (P. aeruginosa [1]): more sensitive
sensitivity of S. aureus to peptide (CFU/ml) (S. aureus MRSA [2]): also sensitive
sensitivity of S. aureus MRSA to peptide as compared to Indolicidin (S. aureus MRSA [2]): more sensitive
sensitivity of S. epidermidis to peptide (CFU/ml) (S. epidermidis): also sensitive
sensitivity of growth of A. baumannii, as compared to M22 (A. baumannii [3]): more sensitive
antibacterial activity against S. aureus MRSA in formulation (S. aureus MRSA [4]): retains antibacterial activity
minimal bactericidal concentration (MBC) [5]: 15 µg/mL
efficacy on A. baumannii, M16 at 4 hours compared to M14 at 24 hours (A. baumannii [6]): more efficacious

HQKMAKPWTQ (Synthetic: M4)
polypeptides target G. vaginalis (time-kill images) (G. vaginalis): target
polypeptides target L. iners (time-kill images) (L. iners): target
polypeptides target L. crispatus (time-kill images) (L. crispatus): not L. crispatus

HYYAVAVVK (Synthetic: M22)
antibacterial activity against S. aureus MRSA in formulation (S. aureus MRSA [4]): retains antibacterial activity
time from which viability of S. aureus MRSA is reduced (S. aureus MRSA [4]): 0 min

KTPKAVNKCR (Synthetic: M8)
polypeptides target G. vaginalis (time-kill images) (G. vaginalis): target
polypeptides target L. iners (time-kill images) (L. iners): target
polypeptides target L. crispatus (time-kill images) (L. crispatus): not L. crispatus
effectiveness in reducing the viability of P. aeruginosa (P. aeruginosa [7]): more effective

NTNRPRTKRA (Synthetic: M5)
polypeptides target G. vaginalis (time-kill images) (G. vaginalis): target
polypeptides target L. iners (time-kill images) (L. iners): target
polypeptides target L. crispatus (time-kill images) (L. crispatus): not L. crispatus

PKVERRPRPR (Synthetic: M1)
polypeptides target G. vaginalis (time-kill images) (G. vaginalis): target
polypeptides target L. iners (time-kill images) (L. iners): target
polypeptides target L. crispatus (time-kill images) (L. crispatus): not L. crispatus

PVPQKVRPQR (Synthetic: M7)
polypeptides target G. vaginalis (time-kill images) (G. vaginalis): target
polypeptides target L. iners (time-kill images) (L. iners): target
polypeptides target L. crispatus (time-kill images) (L. crispatus): not L. crispatus
effectiveness in reducing the viability of P. aeruginosa (P. aeruginosa [7]): more effective
sensitivity of P. aeruginosa to peptide (CFU/ml) (P. aeruginosa [1]): particularly sensitive
sensitivity of P. aeruginosa to peptide as compared to Indolicidin (P. aeruginosa [1]): more sensitive
sensitivity of S. aureus to peptide (CFU/ml) (S. aureus MRSA [2]): also sensitive
sensitivity of S. aureus MRSA to peptide as compared to Indolicidin (S. aureus MRSA [2]): more sensitive
sensitivity of S. epidermidis to peptide (CFU/ml) (S. epidermidis): also sensitive
antibacterial activity against S. aureus MRSA in formulation (S. aureus MRSA [4]): retains antibacterial activity

QHQKAKKPWT (Synthetic: M3)
polypeptides target G. vaginalis (time-kill images) (G. vaginalis): target
polypeptides target L. iners (time-kill images) (L. iners): target
polypeptides target L. crispatus (time-kill images) (L. crispatus): not L. crispatus

RGPPKSCRKRD [M14, RGPPKSCRKRD]
ET50 [8]: >24 h

RPRIPKASAK [M6, RPRIPKASAK]
ET50 [8]: >24 h

RQPRTHKYAVRVVKK (Synthetic: M15)
effectiveness in reducing the viability of P. aeruginosa (P. aeruginosa [7]): more effective

Triton-X-100 [reference compound]
ET50 [8]: 1.55 h
